# Laboratory results taken from paper PMC5556071, “ATR inhibition facilitates targeting of leukemia dependence on convergent nucleotide biosynthetic pathways” (Nature Communications, 2017).
# Several values for one entry are separate records, joined by “and”; a condition that tells them apart may be missing. Identical values can stand only once.
# Tested on: CEM cells
# Assay: Non-targeted LC-MS metabolite profiling: percent [13C6]glucose labeling and relative metabolite levels
# Format: cell-based, human
# Conditions: CEM cells, 12 h following release from G1 arrest, replicates #1-#6
# Excerpt: To further investigate the functions of dCK and ATR at the G1/S transition in CEM cells, a non-targeted liquid chromatography mass spectrometry (LC-MS) assay was used to determine the utilization of labeled [^13C6]glucose and [^13C9,^15N3]deoxycytidine, the main substrates for de novo and salvage nucleotide biosynthesis, respectively. Of the 166 metabolites identified in CEM cells treated with VE-822 and/or dCKi, 105 metabolites found in all four treatment groups contained glucose-derived ^13C atoms. […] These metabolites included intermediates such as rUTP, rCTP and rCDP in the de novo dCTP biosynthesis (Fig. 1d). […] However, several deoxyribonucleotides, including dCTP, were below the limit of detection of the non-targeted LC-MS approach, raising the concern that the sensitivity of this assay is not sufficient to measure the contribution of the salvage pathway or the ratio of de novo and salvage biosynthesis to these pools. To address this problem, a newly developed targeted MS assay was developed (Fig. 1e and Supplementary Fig. 3). In this assay, samples containing either extracted dNTPs or hydrolyzed DNA from labeled cells are separated by LC for detection by a triple quadrupole mass spectrometer using multiple reaction monitoring (LC-MS/MS-MRM). The first (Q1) and third (Q3) quadrupoles function as mass filters, while the second (Q2) quadrupole serves as a collision chamber (Fig. 1e). For instance, to profile the biosynthetic composition of deoxycytidine (dC) derived from hydrolyzed DNA or dCTP, an intact, protonated dC ion is selected in Q1, followed by fragmentation of the glycosidic bond, which releases protonated cytosine in Q2, that is filtered in Q3 and detected to generate an ion chromatogram. The peak areas for the ion chromatograms of salvage [^13C9,^15N3]dC (red trace), de novo [^13C5]dC (black trace, from [^13C6]glucose) and unlabeled dC (gray trace) (Fig. 1e) are used to determine the relative contributions of the de novo and salvage routes both to dCTP pools and to DNA-incorporated dCTP.
# Cells were transferred into RPMI-1640 without glucose and supplemented with 10% dialyzed FBS (Gibco) containing the following labeled substrates: precursors for de novo [U-^13C6]glucose (Sigma-Aldrich, 389374) at 11 mM; precursors for purine salvage [U-^13C10,^15N5]dA (Cambridge Isotopes, CIL 3896), [^15N5]dA (Cambridge Isotopes, NLM-3895) and [^15N5]dG (Cambridge Isotopes, NLM-3899) at 5 µM or as indicated; and precursors for pyrimidine salvage: [U-^13C9,^15N3]dC (Silantes, 124603602) and [U-^13C10,^15N2]dT (Cambridge Isotopes, CNLM-3902) at 5 µM and [^15N2]orotate (Cambridge Isotopes, NLM-1048) at indicated concentrations. The cells were incubated for 12 h or as indicated before sample collection and processing. […]
# Non-targeted LC-MS metabolic assays. 1 x 10^6 cells were washed with ice-cold 150 mM ammonium acetate twice before adding 1 mL of ice-cold 80% methanol with 10 nM norvaline as an internal standard. After vigorous vortexing, samples were centrifuged at maximum speed, the aqueous layer was transferred to a glass vial and the metabolites were dried under vacuum. Metabolites were resuspended in 50 μL 70% acetonitrile (ACN) and 5 μL of this solution used for the mass spectrometer-based analysis. The analysis was performed on a Q Exactive (Thermo Scientific) in polarity-switching mode with positive voltage 4.0 kV and negative voltage 4.0 kV. The mass spectrometer was coupled to an UltiMate 3000RSLC (Thermo Scientific) UHPLC system. Mobile phase A was 5 mM ammonium acetate (NH4AcO), pH 9.9, B was acetonitrile and the separation achieved on a Luna […] NH2 100 A column (150 × 2.0 mm, Phenomenex). The flow was 200 μL/min, and the gradient ran from 15% A to 95% A in 18 min, followed by an isocratic step for 9 min and re-equilibration for 7 min. Metabolites were detected and quantified as area under the curve based on retention time and accurate mass (≤ 3 p.p.m.) using the TraceFinder 3.1 (Thermo Scientific). Relative amounts of […]
# [1] = metabolite CDP (KEGG C00112), listed as V
# [2] = metabolite CDP-EtA (KEGG C00570), listed as V
# [3] = metabolite CMP (KEGG C00055), listed as V
# [4] = metabolite CTP (KEGG C00063), listed as V
# [5] = metabolite Choline (KEGG C00114), listed as V
# [6] = metabolite Cinnamic acid (KEGG C00423), listed as V
# [7] = metabolite Cit (KEGG C00158), listed as V
# [8] = metabolite Citraconic acid (KEGG C02226), listed as V
# [9] = metabolite Creatine (KEGG C00300), listed as V
# [10] = metabolite Creatinine (KEGG C00791), listed as V
# [11] = metabolite Cytosine (KEGG C00380), listed as V
# [12] = metabolite DMG (KEGG C01026), listed as V
# [13] = metabolite Dihydroorotate (KEGG C00337), listed as V
# [14] = metabolite F16BP (KEGG C00354), listed as V
# [15] = metabolite Folate (KEGG C00504), listed as V
# [16] = metabolite Fru (KEGG C00095), listed as V
# [17] = metabolite Fum (KEGG C00122), listed as V
# [18] = metabolite G (KEGG C00387), listed as V
# [19] = metabolite dG (KEGG C00330), listed as V
# [20] = metabolite dTMP (KEGG C00364), listed as V
compound,measurement,setting,value
CNCc1ccc(-c2cc(-c3nc(-c4ccc(S(=O)(=O)C(C)C)cc4)cnc3N)on2)cc1 [VE-822],Glucose labeling of CDP,[1],46.58% and 27.42% and 42.30% and 38.55% and 26.25% and 39.84%
same,Relative level of CDP,[1],3.4 and 1.2 and 1.9 and 1.6 and 0.8 and 0.754
same,Glucose labeling of CDP-EtA,[2],25.10% and 38.04% and 37.00% and 40.76% and 32.59% and 33.65%
same,Relative level of CDP-EtA,[2],0.7 (3×) and 0.9 and 0.744 and 0.633
same,Glucose labeling of CMP,[3],38.36% and 31.49% and 41.31% and 20.57% and 40.83% and 49.90%
same,Relative level of CMP,[3],3.0 and 2.7 and 2.4 and 1.7 and 0.9 and 0.7
same,Glucose labeling of CTP,[4],40.85% and 37.06% and 39.44% and 47.60% and 38.66% and 34.33%
same,Relative level of CTP,[4],1.6 and 0.5 and 0.8 and 0.848 and 0.468 and 0.448
same,Glucose labeling of Choline,[5],0.00248% (3×) and 0.00264% and 0.0024% and 0.00242%
same,Relative level of Choline,[5],1.2 and 1.3 and 1.4 and 0.849 and 0.8 (2×)
same,Glucose labeling of Cinnamic acid,[6],0.00% (5×) and 1.11e-14%
same,Relative level of Cinnamic acid,[6],1.7 and 1.5 and 1.6 and 1.0 (2×) and 0.9
same,Glucose labeling of Cit,[7],50.64% and 47.53% and 49.55% and 44.89% and 45.53% and 45.28%
same,Relative level of Cit,[7],0.9 and 0.6 and 0.7 and 0.47 and 0.449 and 0.454
same,Glucose labeling of Citraconic acid,[8],0.00% (5×) and -2.22e-14%
same,Relative level of Citraconic acid,[8],1.1 (3×) and 1.6 and 0.8 and 1.0
same,Glucose labeling of Citrulline,metabolite Citrulline (KEGG C00327),0.18%
same,Relative level of Citrulline,"metabolite Citrulline (KEGG C00327), listed as V",0.5 and 1.2 (2×) and 2.5 and 0.3 and 0.335
same,Glucose labeling of Creatine,[9],0.000881% and 0.000842% and 0.000971% and 0.000748% and 0.000833% and 0.000956%
same,Relative level of Creatine,[9],1.0 and 1.1 (2×) and 0.8 and 0.9 and 0.852
same,Glucose labeling of Creatinine,[10],0.000588% and 0.000811% and 0.000818% and 0.000809% and 0.000725% and 0.000748%
same,Relative level of Creatinine,[10],1.0 (3×) and 1.1 and 1.2 and 0.848
same,Glucose labeling of Cystathionine,metabolite Cystathionine (KEGG C02291),0.26%
same,Relative level of Cystathionine,"metabolite Cystathionine (KEGG C02291), listed as V",1.0 and 0.182 and 1.1 and 0.2 and 0.4 and 0.251
same,Glucose labeling of Cytosine,[11],0.00381% and 0.000394% and 0.000743% and 0.000956% and 0.000512% and 0.0321%
same,Relative level of Cytosine,[11],1.4 and 1.7 and 3.0 and 5.5 and 1.6 and 0.9
same,Glucose labeling of DHAP,metabolite DHAP (KEGG C00111),100.00%
same,Relative level of DHAP,"metabolite DHAP (KEGG C00111), listed as V",5.8 and 0.3 and 1.3 and 1.2 and 0.2
same,Glucose labeling of DMG,[12],0.0737% and 0.02% and 0.04% and 0.06% and 0.0145% and 0.05%
same,Relative level of DMG,[12],0.7 and 1.3 and 1.0 (2×) and 0.527 and 0.9
same,Glucose labeling of Dihydroorotate,[13],0.55% and 0.92% and 0.10% and 0.96% and 0.80% and 0.09%
same,Relative level of Dihydroorotate,[13],0.9 and 0.7 and 0.8 and 0.754 and 0.5 and 0.468
same,Glucose labeling of F16BP,[14],97.93% and 88.56% and 94.79% and 95.15% and 79.77% and 75.67%
same,Relative level of F16BP,[14],9.1 and 1.1 and 2.4 and 2.6 and 0.552 and 0.456
same,Glucose labeling of Folate,[15],0.00% (5×) and 100.00%
same,Relative level of Folate,[15],0.546 and 1.0 and 0.5 and 0.4 and 0.9
same,Glucose labeling of Fru,[16],58.79% and 68.43% and 78.80% and 67.26% and 65.64% and 42.97%
same,Relative level of Fru,[16],3.7 and 3.5 and 2.9 and 1.6 and 1.8 and 2.4
same,Glucose labeling of Fum,[17],15.89% and 14.12% and 10.85% and 10.48% and 12.71% and 7.86%
same,Relative level of Fum,[17],1.3 and 0.8 (2×) and 1.1 and 0.565 and 0.5
same,Glucose labeling of G,[18],0.55% (4×) and 100.00% (2×)
same,Relative level of G,[18],1.1 and 0.852 and 0.9 and 1.6
same,Glucose labeling of dATP,metabolite dATP (KEGG C00131),100.00%
same,Relative level of dATP,metabolite dATP (KEGG C00131),0.6
same,Glucose labeling of dCTP,metabolite dCTP (KEGG C00458),100.00%
same,Relative level of dCTP,metabolite dCTP (KEGG C00458),0.0
same,Glucose labeling of dG,[19],0.38% and 0.48% and 0.49% and 0.0145% and 0.37% and 0.09%
same,Relative level of dG,[19],1.7 (2×) and 1.1 (2×) and 6.1 and 1.0
same,Relative level of dGDP,metabolite dGDP (KEGG C00361),61.2
same,Glucose labeling of dGDP,"metabolite dGDP (KEGG C00361), listed as V",100.00% (5×) and 0.38%
same,Glucose labeling of dTMP,[20],0.55% and 100.00% (4×) and 82.28%
same,Relative level of dTMP,[20],0.7 and 6.1 and 3.9 and 1.9 and 0.6 and 0.453
same,Glucose labeling of dTTP,metabolite dTTP (KEGG C00459),100.00%
same,Relative level of dTTP,"metabolite dTTP (KEGG C00459), listed as V",0.47 and 0.4
same,"Glucose labeling, Leu/Ile",,0.00%
same,"Glucose labeling, NAD+",,0.00%
same,"Glucose labeling, P-Creatine",,0.0737%
same,"Glucose labeling, P-EtA",,0.0123%
same,"Glucose labeling, PEP",,100.00%
same,"Glucose labeling, Phe",,0.00%
same,"Glucose labeling, Pipecolate",,0.00%
same,"Glucose labeling, Pyr",,100.00%
same,"Glucose labeling, Sarc (C00213)",,0.0369%
same,"Glucose labeling, Thr (C00188)",,0.00%
same,"Glucose labeling, Trigonelline (C01004)",,0.00%
